Values quoted from earlier work, collected in paper PMC6915728 (Nature Communications, 2019).
Read-outs that look alike come from different tables or passages of the source.

Tests used:
[1] = tested on: bacterial species in which the gene showed activity; settings: cited from earlier work
[2] = tested on: AMP-evolved E. coli lines; settings: ref Spohn et al 2019, cited from earlier work
Excerpt: Supplement 41467_2019_13618_MOESM13_ESM.xlsx, sheet "Figure 6 and S15" | column: A comprehensive dataset of antimicrobial susceptibility of AMP-adapted lines to antimicrobial peptides (AMPs).

[3] = tested on: E. coli gene overexpression; settings: cited from earlier work
Excerpt: Supplement 41467_2019_13618_MOESM1_ESM.docx, table 1: Supplementary Table 1. Collected examples of E. coli gene overexpression from the literature as a confirmation of our chemical-genetic screen results. | column: Overexpression phenotype

bacterial membrane = settings: literature mining; ref superscript numbers in the cell, listed in Supplementary Data 7 sheet References; cited from earlier work
Excerpt: Supplement 41467_2019_13618_MOESM10_ESM.xlsx, sheet "AMP details" | column: Pore formation

LLGDFFRKSKEKIGKEFKRIVQRIKDFLRNLVPRTES [LL37, LL-37 human cathelicidin, human host-defense peptide; disrupts cell membrane; cluster C2]
Gene that modulates bacterial susceptibility to the AMP ([1]; Bordetella pertussis, ref http://www.ncbi.nlm.nih.gov/pmc/articles/PMC4136009/): lgmA, IgmB, IgmC
Gene that modulates bacterial susceptibility to the AMP ([1]; Enterobacteriaceae, ref https://www.ncbi.nlm.nih.gov/pmc/articles/PMC3264287/, https://onlinelibrary.wiley.com/doi/full/10.1111/j.1348-0421.2010.00238.x, https://jb.asm.org/content/180/15/4002.full): ompT
Gene that modulates bacterial susceptibility to the AMP ([1]; Enterococcus faecalis, ref http://www.jbc.org/content/279/51/52820.full.pdf): sprE
Gene that modulates bacterial susceptibility to the AMP ([1]; Enterococcus faecalis, ref https://www.ncbi.nlm.nih.gov/pmc/articles/PMC2976315/): gelE
Gene that modulates bacterial susceptibility to the AMP ([1]; Group A Streptococcus pyogenes, ref http://www.ncbi.nlm.nih.gov/pmc/articles/PMC3241932/pdf/nihms218493.pdf): emm1
Gene that modulates bacterial susceptibility to the AMP ([1]; Neisseria meningitidis, gene siaC, ref http://jb.asm.org/content/191/12/3861.full.pdf+html): siaC
Gene that modulates bacterial susceptibility to the AMP ([1]; Neisseria meningitidis, gene siaD, ref http://jb.asm.org/content/191/12/3861.full.pdf+html): siaD
Gene that modulates bacterial susceptibility to the AMP ([1]; Proteus mirabilis, ref http://www.ncbi.nlm.nih.gov/pmc/articles/PMC517467/pdf/0713-04.pdf): zapA
Gene that modulates bacterial susceptibility to the AMP ([1]; Pseudomonas aeruginosa, ref http://portal.research.lu.se/portal/files/2657079/623699.pdf): lasA, IsaB
Gene that modulates bacterial susceptibility to the AMP ([1]; Salmonella typhimurium, Escherichia coli, ref https://www.ncbi.nlm.nih.gov/pmc/articles/PMC3037666/, https://www.ncbi.nlm.nih.gov/pmc/articles/PMC4808223/): amiA, amiC
Gene that modulates bacterial susceptibility to the AMP ([1]; Salmonella typhimurium, ref http://www.sciencedirect.com/science/article/pii/S1368764616300024): waaY
Gene that modulates bacterial susceptibility to the AMP ([1]; Staphylococcus aureus, ref http://aac.asm.org/content/48/12/4673.full.pdf+html): aur (aureolysin)
Gene that modulates bacterial susceptibility to the AMP ([1]; Staphylococcus aureus, ref http://onlinelibrary.wiley.com/doi/10.1111/j.1365-2958.2007.05986.x/epdf): apsS
Gene that modulates bacterial susceptibility to the AMP ([1]; Streptococcus pyogenes, ref http://www.jbc.org/content/279/51/52820.full.pdf): speB
Gene that modulates bacterial susceptibility to the AMP [1]: pgtE and pla
Relative change in MIC (MIC of the AMP-adpated line / MIC of the ancestral strain) ([2]; AMP-adapted line BAC5_3): 1
Relative change in MIC (MIC of the AMP-adpated line / MIC of the ancestral strain) ([2]; AMP-adapted line BAC5_5): 1.2
Relative change in MIC (MIC of the AMP-adpated line / MIC of the ancestral strain) ([2]; AMP-adapted line BAC5_7): 1.1
Relative change in MIC (MIC of the AMP-adpated line / MIC of the ancestral strain) ([2]; AMP-adapted line BAC5_10): 1.1
Relative change in MIC (MIC of the AMP-adpated line / MIC of the ancestral strain) ([2]; AMP-adapted line CAP18_2): 6.3
Relative change in MIC (MIC of the AMP-adpated line / MIC of the ancestral strain) ([2]; AMP-adapted line CAP18_5): 3.7
Relative change in MIC (MIC of the AMP-adpated line / MIC of the ancestral strain) ([2]; AMP-adapted line CAP18_6): 1.2
Relative change in MIC (MIC of the AMP-adpated line / MIC of the ancestral strain) ([2]; AMP-adapted line CAP18_8): 6.3
Relative change in MIC (MIC of the AMP-adpated line / MIC of the ancestral strain) ([2]; AMP-adapted line CAP18_10): 8.2
Relative change in MIC (MIC of the AMP-adpated line / MIC of the ancestral strain) ([2]; AMP-adapted line HBD3_3): 1.7
Relative change in MIC (MIC of the AMP-adpated line / MIC of the ancestral strain) ([2]; AMP-adapted line HBD3_6): 1.2
Relative change in MIC (MIC of the AMP-adpated line / MIC of the ancestral strain) ([2]; AMP-adapted line HBD3_8): 1.7
Relative change in MIC (MIC of the AMP-adpated line / MIC of the ancestral strain) ([2]; AMP-adapted line HBD3_10): 1.7
Relative change in MIC (MIC of the AMP-adpated line / MIC of the ancestral strain) ([2]; AMP-adapted line PEX_1): 1.1
Relative change in MIC (MIC of the AMP-adpated line / MIC of the ancestral strain) ([2]; AMP-adapted line PEX_4): 16
Relative change in MIC (MIC of the AMP-adpated line / MIC of the ancestral strain) ([2]; AMP-adapted line PEX_5): 0.9
Relative change in MIC (MIC of the AMP-adpated line / MIC of the ancestral strain) ([2]; AMP-adapted line PEX_6): 1
Relative change in MIC (MIC of the AMP-adpated line / MIC of the ancestral strain) ([2]; AMP-adapted line PEX_7): 1
Relative change in MIC (MIC of the AMP-adpated line / MIC of the ancestral strain) ([2]; AMP-adapted line PR39_1): 1.2
Relative change in MIC (MIC of the AMP-adpated line / MIC of the ancestral strain) ([2]; AMP-adapted line PR39_2): 1.2
Relative change in MIC (MIC of the AMP-adpated line / MIC of the ancestral strain) ([2]; AMP-adapted line PR39_5): 0.9
Relative change in MIC (MIC of the AMP-adpated line / MIC of the ancestral strain) ([2]; AMP-adapted line PR39_7): 1
Relative change in MIC (MIC of the AMP-adpated line / MIC of the ancestral strain) ([2]; AMP-adapted line PR39_10): 0.8
Relative change in MIC (MIC of the AMP-adpated line / MIC of the ancestral strain) ([2]; AMP-adapted line PROA_2): 1
Relative change in MIC (MIC of the AMP-adpated line / MIC of the ancestral strain) ([2]; AMP-adapted line PROA_3): 0.8
Relative change in MIC (MIC of the AMP-adpated line / MIC of the ancestral strain) ([2]; AMP-adapted line PROA_7): 0.9
Relative change in MIC (MIC of the AMP-adpated line / MIC of the ancestral strain) ([2]; AMP-adapted line PROA_8): 1
Relative change in MIC (MIC of the AMP-adpated line / MIC of the ancestral strain) ([2]; AMP-adapted line PROA_9): 0.9
Relative change in MIC (MIC of the AMP-adpated line / MIC of the ancestral strain) ([2]; AMP-adapted line PXB_2): 1
Relative change in MIC (MIC of the AMP-adpated line / MIC of the ancestral strain) ([2]; AMP-adapted line PXB_5): 0.9
Relative change in MIC (MIC of the AMP-adpated line / MIC of the ancestral strain) ([2]; AMP-adapted line PXB_6): 1
Relative change in MIC (MIC of the AMP-adpated line / MIC of the ancestral strain) ([2]; AMP-adapted line PXB_8): 1
Relative change in MIC (MIC of the AMP-adpated line / MIC of the ancestral strain) ([2]; AMP-adapted line PXB_10): 1
Overexpression phenotype, Literature ([3]; gene marA overexpressed, ref 3 (Warner & Levy 2010)): Resistance^3
Overexpression phenotype, Literature ([3]; gene ompT overexpressed, ref 4 (Stumpe et al. 1998)): Resistance^4
Pore formation (whether AMP makes pores in the bacterial membrane) (bacterial membrane): Yes22
